The text below walks through data of article PMC4633953, “FR171456 is a specific inhibitor of mammalian NSDHL and yeast Erg26p” (Nature Communications, 2015).

Assay [1] has as its system Saccharomyces cerevisiae NF3201. In words: Antifungal MIC. The assay is classed as cell-based.
For a further assay, the target named is T1, Erg26p (Saccharomyces cerevisiae, UniProt P53199).
T1 sequence (P53199 1-349): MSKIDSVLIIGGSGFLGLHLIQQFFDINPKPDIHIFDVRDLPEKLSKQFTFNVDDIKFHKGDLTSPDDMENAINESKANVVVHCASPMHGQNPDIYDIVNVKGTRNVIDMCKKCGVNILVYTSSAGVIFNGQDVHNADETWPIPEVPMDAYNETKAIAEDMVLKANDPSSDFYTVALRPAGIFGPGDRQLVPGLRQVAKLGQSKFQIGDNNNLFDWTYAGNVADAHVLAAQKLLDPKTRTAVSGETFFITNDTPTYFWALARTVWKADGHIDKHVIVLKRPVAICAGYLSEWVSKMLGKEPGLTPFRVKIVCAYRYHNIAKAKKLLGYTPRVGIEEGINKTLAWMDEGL
Kind of assay: biochemical.

Assay [2] relates to replicon-carrying Huh-7 cells. In words: Proliferation/viability of replicon-carrying Huh-7 cells (resazurin). The conditions noted are these: replicon assay conditions. The assay is classed as cell-based, human. The procedure:
The inhibitor screening was performed in 1,536-well plate with 3,000 cells per well, using Huh-7 cells containing the HCV replicon subgenomic genotype 1b, maintained in DMEM, supplemented with (1 × ) L-glutamine (L-Glue), 1 × non-essential amino acids, 10% heat-inactivated fetal bovine serum (FBS), and 1 mg ml^–1 G418, and incubated with compounds for 48 h at 37 °C, 5% CO2. […] Following compound incubation, Resazurin solution (10 × : 1 μg μl^–1 Resazurin in DMSO) diluted to 1 × was then added to a volume of 0.5 μl to each well and incubated for further 3 h at 37 °C, 5% CO2 to monitor cell viability. Subsequently 15 μl, diluted 1:2 from stock of Steady- Glo (Promega) was added and the luminescence from the HCV replicon was monitored using the Envision (Envision US Lum, using 0.1 s per well measurement time).
In general terms: In antiviral work, replicon cells carry a viral genome segment that copies itself.

The subject of a further assay is F. solani. Kind of assay: Combination with clinical antifungal agents (Loewe synergy, growth by OD530). The assay is classed as cell-based. The conditions noted are these: >1 is synergistic.
The test system of assay [3] is S. cerevisiae (BY4743 strain). Kind of assay: Yeast growth inhibition dose response (OD600). The conditions noted are these: BY4743, 14 h, 30 °C, YPD, 2% DMSO. The assay is classed as cell-based. The procedure: Figure 2 FR171456 targets Erg26p in S. cerevisiae. (a) Structures of FR171456, and two related triterpenes (compound 1, compound 2). (b) Duplicate 12-point Dose response curves of wild-type diploid yeast with three compounds in a. Strain BY4743 was grown for 14 h at 30 °C in YPD media with 2% DMSO containing a dilution series of FR171456: black; Compound-1: light grey circles, and Compound-2: light grey squares. Y axis: OD600 absorbance indicating yeast growth, x axis: compound concentrations (log10 μM). (c) Haploinsufficiency and homozygous profiling (HIP resp. HOP) for FR171456 at 4 μM. Each mutant strain in the pool is represented by a circle (non-essential genes) or a square (essential genes). The, y axis represents strain sensitivity and x axis represents z-score (specificity). In (d), the z-scores of the HIP pool strains (y axis) plotted against increasing doses of FR171456 (x axis; μM). (e) Relative compound sensitivity profile of the erg26Δ/ERG26 strain across HIP experiments performed with 1,800 diverse small molecule yeast proliferation inhibitors. TEXT PRINTED IN THE PICTURE: (a) FR171456: MW 516.68; S.c. […] IC50 >200 μM | (a) Compound 2: MW 532.68; S.c. IC50 >200 μM

In assay [4] the test system is Aspergillus terreus NF4906. In words: Antifungal MIC. The assay is classed as cell-based.
The subject of assay [5] is Scedosporium apiospermum NF4908. In words: Antifungal MIC. The assay is classed as cell-based.
For another assay, the target named is delta-opioid receptor (Homo sapiens, UniProt P41143). Kind of assay: Radioligand competition assay. The assay is classed as binding. A general note: Loss of bound radioactivity is the signal in a displacement assay; it reports binding, not function.
delta-opioid receptor, sequence (P41143 whole entry): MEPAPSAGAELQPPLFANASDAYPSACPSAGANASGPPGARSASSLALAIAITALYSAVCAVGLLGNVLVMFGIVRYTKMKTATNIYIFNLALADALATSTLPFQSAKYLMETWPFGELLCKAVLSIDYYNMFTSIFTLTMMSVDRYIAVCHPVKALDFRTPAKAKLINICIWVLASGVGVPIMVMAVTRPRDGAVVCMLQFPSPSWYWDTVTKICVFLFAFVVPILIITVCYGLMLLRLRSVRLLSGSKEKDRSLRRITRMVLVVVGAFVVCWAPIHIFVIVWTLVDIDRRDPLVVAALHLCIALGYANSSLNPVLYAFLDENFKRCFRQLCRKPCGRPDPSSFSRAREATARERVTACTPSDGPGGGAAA
For another assay, the system named is Aspergillus favus NF4902. In words: Antifungal MIC. The assay is classed as cell-based.
For assay [6], the system named is panel of 24 receptors/enzymes. In words: Pharmacological profiling against a panel of 24 receptors/enzymes. The assay is classed as binding.
A further assay has as its system Candida albicans NF2103. Kind of assay: Antifungal MIC. The assay is classed as cell-based.

Structures are written as SMILES. Values joined by “and” are separate entries in the source; they are usually repeats but may differ in a detail not shown here. Identical values can stand only once.

Method for Erg26p: To test this hypothesis an in vitro microsomal Erg26p activity assay[30] was used. Erg26p activity was directly assessed in the presence of increasing concentrations of FR171456 (10 nM–0.1 mM) in the presence of 150 μM carboxysterol substrate (Fig. 1c) and the cofactor NAD^+ (0.5 mM) followed by GC-MS detection of the product 4α-methyl-cholest-8,24-dien-3-one.
Wild-type yeast (FL200) microsomes were prepared as follows. Yeast cells were disrupted by glass bead homogenization (0.45-mm diameter) in 100 mM phosphate buffer (pH 7.5) containing 1.5 mM reduced glutathione and 30 mM nicotinamide for 8 min at 0 °C[44]. The cell extract was obtained by centrifugation at 10,000 × g for 20 min. Microsomes were then isolated by centrifuging the cell extract supernatant at 100,000 × g for 90 min. The resulting microsomal pellet was resuspended in 100 mM phosphate buffer (pH 7.5) containing 3 mM reduced glutathione and 20% glycerol (v/v) using an Elvehjem–Potter homogenizer. Yeast microsomes (1.2 mg of protein) were incubated in the presence of 4α-carboxy-4β-methyl-cholest-8,24-dien-3β-ol (50–300 mM) and NAD^+ (0.5 mM) for 35–45 min at 30 °C. After addition of coprostanone (2–6 μg) as internal standard, the reactions were extracted as described previously[12]. The extract was analysed by TLC on silica gel and eluted twice with CH2Cl2. The fraction migrating between a standard of 4-desmethyl-sterone (RF= 0.50) and 4,4-dimethyl-sterone (RF=0.70) was eluted and analysed using a GC-MS spectrometer (Agilent 5973 N).
In the case of inhibition assays, microsomes were incubated for 35–45 min at 30 °C in the presence of 4α-carboxy-4β-methyl-cholest-8,24-dien-3β-ol (50–300 mM) and a range of inhibitor concentration (0.01–100 μM) from which a dose–response curve was obtained allowing the corresponding I50 values to be determined.
The GC-MS spectrometer (Agilent 5973 N) was equipped with an ‘on column' injector and a capillary column (30 × 0.25 mm) coated with DB5 (H2 flow rate of 2 ml min^−1). The temperature program included a 30 °C min^−1 increase from 60 °C to 240 °C, and followed by a 2 °C/min increase from 240 °C to 280 °C. The areas of the GC peaks of coprostanone (tR=1.000) and of the produced 4α-methyl-cholest-8,24-dien-3-one (tR=1.139), corrected from endogenous component of the same tR (1.139) determined in the blank (boiled microsomes), allowed the rate of transformation of 4α-carboxy-4β-methyl-cholest-8,24-dien-3β-ol to be measured. Under these conditions, the estimated limit of detection of the 3βHSD/D activity was 0.1 nmol h^−1 mg^−1.
Method for F. solani: incubated for 24 h in increasing combined doses of FR171456 and Amphotericin B, and growth
assessed by OD530. (a) Normalised growth rates plotted as % inhibition of growth. (b) Loewe excess
heat map showing difference between predicted scores based upon the addition of each agent
alone and the actual values detected plotted as difference in % of inhibition. (c) Loewe isobologram
- a comparison of the doses of each compound needed to achieve 50% inhibition of proliferation.

`C=C(CCC(C)C1CCC2C1(C)CC(O)C13CC14C(=O)CC(O)C(C)(C(=O)O)C4C(=O)CC23O)C(C)C` [FR171456, (1R,2aR,3R,5aR,5bS,7aR,8S,9S,11aS,12aR)-1,5b,9-trihydroxy-2a,8-dimethyl-3-((R)-6-methyl-5-methyleneheptan-2-yl)-7,11-dioxohexadecahydrocyclopenta[a]cyclopropa[e]-phenanthrene-8-carboxylic acid]: the minimal inhibitory concentration (MIC) – broadly, the smallest concentration in the dilution series that meets the test's criterion for growth inhibition – in assay [1] is 8 µg/mL and 18 µM; in assay [4] it was 4 µg/mL and 9 µM; in [5] it was 64 µg/mL and 144 µM; with Aspergillus favus NF4902, 64 µg/mL and 144 µM; with Candida albicans NF2103 it was 32 µg/mL and 72 µM. The concentration for half-maximal inhibition (IC50) (commonly the concentration at which inhibition is half-maximal) against Erg26p came out at 2.2 ± 0.5 µM; in [3] it was 13.6 µM; in assay [3] (Saccharomyces cerevisiae, 14 h), 14 µM; at delta-opioid receptor it was 0.1 µM. In addition, the “concentration not affecting proliferation” value in assay [2] is more than 4 µM. For the same molecule, the Loewe synergy score was 2.7 with F. solani (combination of Amphotericin B and FR171456, text prints R. oryzae, Supplementary Fig. 4 F. solani); less than 1 in the assay with F. solani (combination with posaconazole). In assay [6], the “specificity in receptor/enzyme panel” value is recorded as “only one target with significant binding”.
